In ChEMBL document CHEMBL4364276, “Discovery of 4-phenyl-2H-benzo[b][1,4]oxazin-3(4H)-one derivatives as potent and orally active PI3K/mTOR dual inhibitors” (Eur J Med Chem, 2019):

What was measured:
[1] = biological target: Insulin receptor (Homo sapiens) (UniProt P06213); assay: Inhibition of human IR at 100 nM using poly[Glu:Tyr] (4:1) as substrate by [gamma-33P]-ATP assay
[2] = biological target: Eukaryotic translation initiation factor 2-alpha kinase 3 (Homo sapiens) (UniProt Q9NZJ5); assay: Inhibition of human EIF2AK3 at 100 nM using MBP as substrate by [gamma-33P]-ATP assay
[3] = biological target: Fibroblast growth factor receptor 1 (Homo sapiens) (UniProt P11362); assay: Inhibition of human FGFR1 at 100 nM using KKKSPGEYVNIEFG as substrate by [gamma-33P]-ATP assay
[4] = biological target: SRSF protein kinase 2 (Homo sapiens) (UniProt P78362); assay: Inhibition of human SRPK2 at 100 nM using GRSRSRSRSR as substrate by [gamma-33P]-ATP assay
[5] = biological target: Dual specificity protein kinase CLK2 (Homo sapiens) (UniProt P49760); assay: Inhibition of human CLK2 at 100 nM using MBP as substrate by [gamma-33P]-ATP assay
[6] = biological target: Calcium/calmodulin-dependent protein kinase kinase 1 (Homo sapiens) (UniProt Q8N5S9); assay: Inhibition of human CAMKK1 at 100 nM using MBP as substrate by [gamma-33P]-ATP assay
Sequence of Calcium/calmodulin-dependent protein kinase kinase 1 (Homo sapiens) (Q8N5S9 whole entry, looked up): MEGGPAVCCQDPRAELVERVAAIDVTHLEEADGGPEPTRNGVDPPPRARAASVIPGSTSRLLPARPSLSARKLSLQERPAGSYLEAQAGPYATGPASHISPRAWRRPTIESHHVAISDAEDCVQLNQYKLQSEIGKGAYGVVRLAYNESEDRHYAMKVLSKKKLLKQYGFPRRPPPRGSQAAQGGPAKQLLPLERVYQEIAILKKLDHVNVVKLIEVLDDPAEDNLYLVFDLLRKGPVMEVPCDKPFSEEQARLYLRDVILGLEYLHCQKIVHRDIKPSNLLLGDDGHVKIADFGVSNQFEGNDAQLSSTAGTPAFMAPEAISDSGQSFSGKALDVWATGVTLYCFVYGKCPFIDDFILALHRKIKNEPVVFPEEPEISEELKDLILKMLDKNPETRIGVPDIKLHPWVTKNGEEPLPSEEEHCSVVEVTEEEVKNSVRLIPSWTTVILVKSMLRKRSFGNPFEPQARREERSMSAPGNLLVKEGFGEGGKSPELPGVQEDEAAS

[7] = biological target: Serine/threonine-protein kinase 4 (Homo sapiens) (UniProt Q13043); assay: Inhibition of human MST1 at 100 nM using KKSRGDYMTMQIG as substrate by [gamma-33P]-ATP assay
[8] = biological target: Casein kinase I isoform alpha (Homo sapiens) (UniProt P48729); assay: Inhibition of human CK1a1 at 100 nM using KRRRAL[pS]VASLPGL as substrate by [gamma-33P]-ATP assay
[9] = biological target: Mitogen-activated protein kinase 9 (Homo sapiens) (UniProt P45984); assay: Inhibition of human JNK2 at 100 nM using ATF2 as substrate by [gamma-33P]-ATP assay
Sequence of Mitogen-activated protein kinase 9 (Homo sapiens) (P45984 whole entry, looked up): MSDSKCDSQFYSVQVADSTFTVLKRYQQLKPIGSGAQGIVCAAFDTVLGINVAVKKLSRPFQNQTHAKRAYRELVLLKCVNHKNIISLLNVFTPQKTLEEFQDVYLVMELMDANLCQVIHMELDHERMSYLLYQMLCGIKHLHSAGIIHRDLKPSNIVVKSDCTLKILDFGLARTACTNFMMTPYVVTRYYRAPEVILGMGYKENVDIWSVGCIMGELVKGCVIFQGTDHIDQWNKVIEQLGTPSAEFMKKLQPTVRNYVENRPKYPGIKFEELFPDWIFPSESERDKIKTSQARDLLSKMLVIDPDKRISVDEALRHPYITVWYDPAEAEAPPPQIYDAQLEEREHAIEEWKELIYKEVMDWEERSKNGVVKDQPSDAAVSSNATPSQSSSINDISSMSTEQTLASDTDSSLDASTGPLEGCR

[10] = biological target: Tyrosine-protein kinase ABL2 (Homo sapiens) (UniProt P42684); assay: Inhibition of human ABL2 at 100 nM using EAIYAAPFAKKK as substrate by [gamma-33P]-ATP assay
Sequence of Tyrosine-protein kinase ABL2 (Homo sapiens) (P42684 whole entry): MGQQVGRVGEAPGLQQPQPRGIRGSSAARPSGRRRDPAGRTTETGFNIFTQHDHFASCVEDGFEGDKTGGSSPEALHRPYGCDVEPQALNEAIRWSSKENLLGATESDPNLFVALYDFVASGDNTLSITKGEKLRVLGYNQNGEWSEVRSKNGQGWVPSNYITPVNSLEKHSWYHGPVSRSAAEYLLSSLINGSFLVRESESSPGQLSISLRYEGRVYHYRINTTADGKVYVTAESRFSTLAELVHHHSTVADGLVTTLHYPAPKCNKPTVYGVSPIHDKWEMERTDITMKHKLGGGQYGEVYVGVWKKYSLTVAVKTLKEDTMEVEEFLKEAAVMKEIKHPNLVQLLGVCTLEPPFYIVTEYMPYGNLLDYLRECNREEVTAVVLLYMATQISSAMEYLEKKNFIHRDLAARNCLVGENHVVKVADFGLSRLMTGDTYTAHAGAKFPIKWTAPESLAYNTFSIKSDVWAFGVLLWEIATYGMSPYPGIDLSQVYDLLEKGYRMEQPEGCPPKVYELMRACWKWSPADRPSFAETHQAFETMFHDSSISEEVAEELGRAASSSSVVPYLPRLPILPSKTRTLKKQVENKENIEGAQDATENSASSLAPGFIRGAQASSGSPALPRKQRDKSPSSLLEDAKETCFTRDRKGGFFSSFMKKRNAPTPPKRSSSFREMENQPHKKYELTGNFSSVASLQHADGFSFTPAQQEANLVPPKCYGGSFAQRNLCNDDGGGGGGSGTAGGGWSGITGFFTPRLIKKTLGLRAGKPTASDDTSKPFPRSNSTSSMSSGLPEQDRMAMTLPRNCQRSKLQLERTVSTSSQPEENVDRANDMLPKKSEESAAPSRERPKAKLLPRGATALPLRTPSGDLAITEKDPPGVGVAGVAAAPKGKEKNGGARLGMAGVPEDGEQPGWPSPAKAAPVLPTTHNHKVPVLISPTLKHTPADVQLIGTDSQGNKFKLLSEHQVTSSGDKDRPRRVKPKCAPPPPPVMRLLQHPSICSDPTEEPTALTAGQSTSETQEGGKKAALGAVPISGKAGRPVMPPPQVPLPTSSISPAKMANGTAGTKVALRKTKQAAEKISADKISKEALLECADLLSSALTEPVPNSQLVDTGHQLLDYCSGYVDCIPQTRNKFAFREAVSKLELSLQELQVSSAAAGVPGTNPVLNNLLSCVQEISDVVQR

[11] = Inhibition of PI3K/Akt/mTOR signaling in human HeLa cells assessed as reduction in S6 phosphorylation incubated for 24 hrs by Western blot analysis; format: cell-based
[12] = biological target: Ephrin type-B receptor 1 (Homo sapiens) (UniProt P54762); assay: Inhibition of human EPHB1 at 100 nM using poly[Glu:Tyr] (4:1) as substrate by [gamma-33P]-ATP assay
[13] = biological target: Serine/threonine-protein kinase greatwall (Homo sapiens) (UniProt Q96GX5); assay: Inhibition of human MASTL at 100 nM using ERK2 as substrate by [gamma-33P]-ATP assay
Sequence of Serine/threonine-protein kinase greatwall (Homo sapiens) (Q96GX5 whole entry): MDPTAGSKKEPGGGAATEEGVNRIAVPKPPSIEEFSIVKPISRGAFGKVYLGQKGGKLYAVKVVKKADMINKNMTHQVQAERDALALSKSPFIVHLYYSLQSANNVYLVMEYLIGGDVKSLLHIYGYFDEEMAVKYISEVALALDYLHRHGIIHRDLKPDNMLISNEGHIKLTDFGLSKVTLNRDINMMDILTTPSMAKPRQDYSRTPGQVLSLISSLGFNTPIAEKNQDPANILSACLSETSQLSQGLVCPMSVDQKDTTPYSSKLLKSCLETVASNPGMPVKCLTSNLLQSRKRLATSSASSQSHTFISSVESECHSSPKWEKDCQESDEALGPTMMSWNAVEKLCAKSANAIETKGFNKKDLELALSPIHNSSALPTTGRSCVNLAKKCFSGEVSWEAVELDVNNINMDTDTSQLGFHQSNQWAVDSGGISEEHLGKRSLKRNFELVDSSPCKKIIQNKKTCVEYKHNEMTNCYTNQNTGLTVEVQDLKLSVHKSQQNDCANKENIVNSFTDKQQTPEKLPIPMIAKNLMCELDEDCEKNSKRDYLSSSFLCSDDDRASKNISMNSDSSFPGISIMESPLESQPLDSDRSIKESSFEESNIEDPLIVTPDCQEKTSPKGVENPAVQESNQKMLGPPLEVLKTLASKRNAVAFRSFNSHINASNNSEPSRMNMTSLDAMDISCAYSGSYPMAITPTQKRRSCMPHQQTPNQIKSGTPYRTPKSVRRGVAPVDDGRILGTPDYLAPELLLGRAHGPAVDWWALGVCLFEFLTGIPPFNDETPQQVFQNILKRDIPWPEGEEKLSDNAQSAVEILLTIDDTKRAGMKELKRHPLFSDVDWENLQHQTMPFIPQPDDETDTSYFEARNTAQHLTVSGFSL

[14] = biological target: Testis-specific serine/threonine-protein kinase 6 (Homo sapiens) (UniProt Q9BXA6); assay: Inhibition of human SSTK at 100 nM using MBP as substrate by [gamma-33P]-ATP assay
Sequence of Testis-specific serine/threonine-protein kinase 6 (Homo sapiens) (Q9BXA6 whole entry): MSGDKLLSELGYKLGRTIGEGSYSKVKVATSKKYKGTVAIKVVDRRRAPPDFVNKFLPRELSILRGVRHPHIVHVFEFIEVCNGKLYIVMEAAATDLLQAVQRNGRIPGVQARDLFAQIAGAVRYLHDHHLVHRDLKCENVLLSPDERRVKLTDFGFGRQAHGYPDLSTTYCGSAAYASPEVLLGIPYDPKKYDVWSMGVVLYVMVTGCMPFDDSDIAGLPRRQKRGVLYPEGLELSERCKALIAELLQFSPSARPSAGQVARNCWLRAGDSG

[15] = biological target: MAP kinase-interacting serine/threonine-protein kinase 2 (Homo sapiens) (UniProt Q9HBH9); assay: Inhibition of human MNK2 at 100 nM using MBP as substrate by [gamma-33P]-ATP assay
[16] = biological target: Serine/threonine-protein kinase tousled-like 2 (Homo sapiens) (UniProt Q86UE8); assay: Inhibition of human TLK2 at 100 nM using casein as substrate by [gamma-33P]-ATP assay
[17] = biological target: Mitogen-activated protein kinase kinase kinase 3 (Homo sapiens) (UniProt Q99759); assay: Inhibition of human MEKK3 at 100 nM using MBP as substrate by [gamma-33P]-ATP assay
[18] = biological target: Phosphorylase b kinase gamma catalytic chain, liver/testis isoform (Homo sapiens) (UniProt P15735); assay: Inhibition of human PHKgamma2 at 100 nM using MBP as substrate by [gamma-33P]-ATP assay
Sequence of Phosphorylase b kinase gamma catalytic chain, liver/testis isoform (Homo sapiens) (P15735 whole entry, canonical isoform): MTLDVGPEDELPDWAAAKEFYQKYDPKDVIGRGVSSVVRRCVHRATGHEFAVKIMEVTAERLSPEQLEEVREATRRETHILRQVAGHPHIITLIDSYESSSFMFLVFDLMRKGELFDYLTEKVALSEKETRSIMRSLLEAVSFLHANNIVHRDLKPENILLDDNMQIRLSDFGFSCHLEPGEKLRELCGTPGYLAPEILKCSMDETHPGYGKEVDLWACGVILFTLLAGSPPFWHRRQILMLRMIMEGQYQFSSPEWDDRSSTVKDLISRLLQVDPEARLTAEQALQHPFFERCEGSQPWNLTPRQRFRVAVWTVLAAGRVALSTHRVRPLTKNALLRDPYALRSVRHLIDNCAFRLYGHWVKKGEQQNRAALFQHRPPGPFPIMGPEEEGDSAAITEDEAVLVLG

[19] = biological target: Dual specificity mitogen-activated protein kinase kinase 4 (Homo sapiens) (UniProt P45985); assay: Inhibition of human MKK4 at 100 nM using JNK1 as substrate by [gamma-33P]-ATP assay
[20] = biological target: Mitogen-activated protein kinase kinase kinase 2 (Homo sapiens) (UniProt Q9Y2U5); assay: Inhibition of human MEKK2 at 100 nM using MBP as substrate by [gamma-33P]-ATP assay
[21] = biological target: Fibroblast growth factor receptor 4 (Homo sapiens) (UniProt P22455); assay: Inhibition of human FGFR4 at 100 nM using poly[Glu:Tyr] (4:1) as substrate by [gamma-33P]-ATP assay
[22] = biological target: Cyclin-Y/Cyclin-dependent kinase 16 (Homo sapiens) (UniProt Q00536+Q8ND76); assay: Inhibition of human CDK16/cyclin-Y at 100 nM using RB protein as substrate by [gamma-33P]-ATP assay; format: protein-complex assay
[23] = biological target: Myosin-IIIb (Homo sapiens) (UniProt Q8WXR4); assay: Inhibition of human MYO3B at 100 nM using MBP as substrate by [gamma-33P]-ATP assay
[24] = biological target: Serine/threonine-protein kinase OSR1 (Homo sapiens) (UniProt O95747); assay: Inhibition of human OSR1 at 100 nM using RRHYYYDTHTNTYYLRTFGHNTRR as substrate by [gamma-33P]-ATP assay
Sequence of Serine/threonine-protein kinase OSR1 (Homo sapiens) (O95747 2-527 limits assumed): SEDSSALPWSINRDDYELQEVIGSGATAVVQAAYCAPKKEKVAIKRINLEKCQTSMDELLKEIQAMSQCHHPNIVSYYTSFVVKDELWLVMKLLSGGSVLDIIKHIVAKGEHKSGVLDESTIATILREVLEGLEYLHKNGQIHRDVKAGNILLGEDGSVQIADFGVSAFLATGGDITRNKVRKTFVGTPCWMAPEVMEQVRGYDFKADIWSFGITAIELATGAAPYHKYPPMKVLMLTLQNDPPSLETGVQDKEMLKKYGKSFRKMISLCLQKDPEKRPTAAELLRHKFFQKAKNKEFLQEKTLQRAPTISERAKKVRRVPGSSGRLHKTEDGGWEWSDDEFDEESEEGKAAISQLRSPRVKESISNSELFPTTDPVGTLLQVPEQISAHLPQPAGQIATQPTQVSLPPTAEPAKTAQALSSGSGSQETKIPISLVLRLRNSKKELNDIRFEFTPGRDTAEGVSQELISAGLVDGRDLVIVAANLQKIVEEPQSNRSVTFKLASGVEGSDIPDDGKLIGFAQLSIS

[25] = biological target: Ribosomal protein S6 kinase alpha-5 (Homo sapiens) (UniProt O75582); assay: Inhibition of human MSK1 at 100 nM using GRPRTSSFAEG as substrate by [gamma-33P]-ATP assay
[26] = biological target: CDK6/cyclin D1 (Homo sapiens) (UniProt P24385+Q00534); assay: Inhibition of human CDK6/cyclin-D1 at 100 nM using RB protein as substrate by [gamma-33P]-ATP assay; format: protein-complex assay
[27] = biological target: Ribosomal protein S6 kinase beta-1 (Homo sapiens) (UniProt P23443); assay: Inhibition of human p70S6K at 100 nM using KKRNRTLTK as substrate by [gamma-33P]-ATP assay
Sequence of Ribosomal protein S6 kinase beta-1 (Homo sapiens) (P23443 whole entry, looked up): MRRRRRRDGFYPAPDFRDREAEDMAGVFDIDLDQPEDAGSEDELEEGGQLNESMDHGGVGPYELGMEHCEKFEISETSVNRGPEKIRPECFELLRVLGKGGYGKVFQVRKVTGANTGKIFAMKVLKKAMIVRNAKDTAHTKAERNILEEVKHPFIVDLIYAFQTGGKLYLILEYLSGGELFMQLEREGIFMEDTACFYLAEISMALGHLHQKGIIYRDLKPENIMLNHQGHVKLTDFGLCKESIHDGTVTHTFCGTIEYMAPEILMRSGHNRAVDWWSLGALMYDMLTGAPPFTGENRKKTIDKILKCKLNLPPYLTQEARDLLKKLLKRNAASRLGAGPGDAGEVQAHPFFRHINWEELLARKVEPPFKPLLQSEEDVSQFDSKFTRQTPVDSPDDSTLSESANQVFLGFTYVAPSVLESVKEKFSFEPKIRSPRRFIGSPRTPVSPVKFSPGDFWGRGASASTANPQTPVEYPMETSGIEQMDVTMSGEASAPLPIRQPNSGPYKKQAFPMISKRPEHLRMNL

[28] = biological target: RAC-gamma serine/threonine-protein kinase (Homo sapiens) (UniProt Q9Y243); assay: Inhibition of human AKT3 at 100 nM using KGSGSGRPRTSSFAEG as substrate by [gamma-33P]-ATP assay
[29] = biological target: Mitogen-activated protein kinase kinase kinase 10 (Homo sapiens) (UniProt Q02779); assay: Inhibition of human MLK2 at 100 nM using MBP as substrate by [gamma-33P]-ATP assay
[30] = biological target: Tyrosine-protein kinase ABL1 (Homo sapiens) (UniProt P00519); assay: Inhibition of human ABL1 at 100 nM using EAIYAAPFAKKK as substrate by [gamma-33P]-ATP assay
[31] = biological target: Tyrosine-protein kinase Blk (Homo sapiens) (UniProt P51451); assay: Inhibition of human BLK at 100 nM using poly[Glu:Tyr](4:1) as substrate by [gamma-33P]-ATP assay

COc1ccc(N2C(=O)COc3ccc(-c4cnc(OC)c(NS(=O)(=O)c5ccc(F)cc5)c4)cc32)cc1
inhibition [1]: 6.82% | inhibition [2]: 23.3% | inhibition [3]: -9.98% | inhibition [4]: -0.24% | inhibition [5]: 10.2% | inhibition [6]: 14.3% | inhibition [7]: 11.4% | inhibition [8]: 16.6% | inhibition [9]: 22.4% | inhibition [10]: -2.65% | inhibition [11]: Dose-dependent effect | inhibition [12]: 8.67% | inhibition [13]: -1.96% | inhibition [14]: 2.2% | inhibition [15]: 21.1% | inhibition [16]: -7.96% | inhibition [17]: 2.85% | inhibition [18]: 20% | inhibition [19]: -4.2% | inhibition [20]: 28.4% | inhibition [21]: 6.2% | inhibition [22]: 0.27% | inhibition [23]: 8.36% | inhibition [24]: 4.85% | inhibition [25]: 8.07% | inhibition [26]: 9.71% | inhibition [27]: 0.03% | inhibition [28]: 5.88% | inhibition [29]: -1.63% | inhibition [30]: 1.19% | inhibition [31]: 27.5%
